Assay results from ChEMBL document CHEMBL5390264, “Exploring Fatty Acid Mimetics as NR4A Ligands” (J Med Chem, 2023).
The source made the active and inactive calls. The rule behind the calls is not given here.

Legend:
[1] = target: T1, Nuclear receptor subfamily 4 group A member 2 (Homo sapiens, UniProt P43354); assay: Agonist activity at full length human Nurr1 transiently transfected in HEK293T cells co-transfected with pFR-Luc-NBRE incubated for 16 hrs by Gal4-hybrid reporter gene based Dual-glo luciferase assay; format: cell-based
[2] = Selectivity ratio for agonist activity at PPARdelta LBD (unknown origin) transiently transfected in HEK293T cells to agonist activity at human Nurr1 LBD transiently transfected in HEK293T cells; format: cell-based
[3] = target: T2, Vitamin D3 receptor (Homo sapiens) (UniProt P11473); assay: Agonist activity at VDR LBD (unknown origin) transiently transfected in HEK293T cells at 1 uM incubated for 16 hrs by Gal4-hybrid reporter gene based Dual-glo luciferase assay; format: cell-based
T2 sequence (whole entry): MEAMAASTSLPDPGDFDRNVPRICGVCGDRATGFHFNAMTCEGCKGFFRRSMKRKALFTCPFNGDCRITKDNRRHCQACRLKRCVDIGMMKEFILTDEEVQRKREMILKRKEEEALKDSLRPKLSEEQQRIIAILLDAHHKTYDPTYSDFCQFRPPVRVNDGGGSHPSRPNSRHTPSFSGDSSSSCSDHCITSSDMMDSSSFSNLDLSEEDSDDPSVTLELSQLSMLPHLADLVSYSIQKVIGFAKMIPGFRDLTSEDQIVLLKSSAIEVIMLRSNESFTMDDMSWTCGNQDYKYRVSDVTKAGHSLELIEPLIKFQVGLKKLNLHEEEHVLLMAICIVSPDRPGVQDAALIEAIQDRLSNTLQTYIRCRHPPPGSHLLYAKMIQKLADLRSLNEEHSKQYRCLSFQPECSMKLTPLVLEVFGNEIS

[4] = target: T1, Nuclear receptor subfamily 4 group A member 2; conditions: filed as agonist, dose 100.0 µM
[5] = target: T1, Nuclear receptor subfamily 4 group A member 2; assay: Agonist activity at full length human Nurr1 transiently transfected in HEK293T cells co-transfected with pFR-Luc-NurRE incubated for 16 hrs by Gal4-hybrid reporter gene based Dual-glo luciferase assay; format: cell-based
[6] = Selectivity ratio for agonist activity at THRalpha LBD (unknown origin) transiently transfected in HEK293T cells to agonist activity at human Nur77 LBD transiently transfected in HEK293T cells; format: cell-based
[7] = target: Nuclear receptor subfamily 4immunitygroup A member 1 (Homo sapiens, UniProt P22736); assay: Agonist activity at human Nur77 LBD transiently transfected in HEK293T cells incubated for 16 hrs by Gal4-hybrid reporter gene based Dual-glo luciferase assay; format: cell-based
[8] = Selectivity ratio for agonist activity at VDR LBD (unknown origin) transiently transfected in HEK293T cells to agonist activity at human NOR-1 LBD transiently transfected in HEK293T cells; format: cell-based
[9] = Selectivity ratio for agonist activity at PPARgamma LBD (unknown origin) transiently transfected in HEK293T cells to agonist activity at human Nurr1 LBD transiently transfected in HEK293T cells; format: cell-based
[10] = Selectivity ratio for agonist activity at THRalpha LBD (unknown origin) transiently transfected in HEK293T cells to agonist activity at human NOR-1 LBD transiently transfected in HEK293T cells; format: cell-based
[11] = Selectivity ratio for agonist activity at RXRalpha LBD (unknown origin) transiently transfected in HEK293T cells to agonist activity at human NOR-1 LBD transiently transfected in HEK293T cells; format: cell-based
[12] = target: T3, Peroxisome proliferator-activated receptor delta (Homo sapiens) (UniProt Q03181); assay: Agonist activity at PPARdelta LBD (unknown origin) transiently transfected in HEK293T cells at 1 uM incubated for 16 hrs by Gal4-hybrid reporter gene based Dual-glo luciferase assay; format: cell-based
T3 sequence (whole entry): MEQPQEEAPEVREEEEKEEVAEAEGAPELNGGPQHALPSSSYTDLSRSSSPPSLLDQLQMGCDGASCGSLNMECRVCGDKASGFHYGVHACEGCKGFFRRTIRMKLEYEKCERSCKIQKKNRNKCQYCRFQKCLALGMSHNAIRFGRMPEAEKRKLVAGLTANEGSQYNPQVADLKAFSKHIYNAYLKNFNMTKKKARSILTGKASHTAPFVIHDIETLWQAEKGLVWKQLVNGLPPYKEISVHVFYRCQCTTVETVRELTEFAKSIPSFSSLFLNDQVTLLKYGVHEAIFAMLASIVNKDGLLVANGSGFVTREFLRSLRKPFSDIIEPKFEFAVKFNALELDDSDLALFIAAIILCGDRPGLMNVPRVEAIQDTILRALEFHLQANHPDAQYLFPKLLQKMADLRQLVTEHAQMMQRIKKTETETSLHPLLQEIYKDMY

[13] = target: T4, Peroxisome proliferator-activated receptor alpha (Homo sapiens) (UniProt Q07869); assay: Agonist activity at PPARalpha LBD (unknown origin) transiently transfected in HEK293T cells at 1 uM incubated for 16 hrs by Gal4-hybrid reporter gene based Dual-glo luciferase assay; format: cell-based
T4 sequence (whole entry): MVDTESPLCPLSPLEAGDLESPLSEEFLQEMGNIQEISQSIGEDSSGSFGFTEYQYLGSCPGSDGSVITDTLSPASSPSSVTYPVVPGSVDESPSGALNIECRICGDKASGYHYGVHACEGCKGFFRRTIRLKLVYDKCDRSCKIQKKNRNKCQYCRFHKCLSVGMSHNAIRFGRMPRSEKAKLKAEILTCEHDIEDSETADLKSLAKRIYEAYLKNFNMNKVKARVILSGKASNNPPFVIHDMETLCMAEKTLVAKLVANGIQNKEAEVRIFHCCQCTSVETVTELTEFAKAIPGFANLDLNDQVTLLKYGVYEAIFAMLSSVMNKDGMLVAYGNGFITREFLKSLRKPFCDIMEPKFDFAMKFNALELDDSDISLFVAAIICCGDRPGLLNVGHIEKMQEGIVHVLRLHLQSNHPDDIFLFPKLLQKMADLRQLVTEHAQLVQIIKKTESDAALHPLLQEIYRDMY

T1 sequence (P43354 whole entry, the tested form may be a part): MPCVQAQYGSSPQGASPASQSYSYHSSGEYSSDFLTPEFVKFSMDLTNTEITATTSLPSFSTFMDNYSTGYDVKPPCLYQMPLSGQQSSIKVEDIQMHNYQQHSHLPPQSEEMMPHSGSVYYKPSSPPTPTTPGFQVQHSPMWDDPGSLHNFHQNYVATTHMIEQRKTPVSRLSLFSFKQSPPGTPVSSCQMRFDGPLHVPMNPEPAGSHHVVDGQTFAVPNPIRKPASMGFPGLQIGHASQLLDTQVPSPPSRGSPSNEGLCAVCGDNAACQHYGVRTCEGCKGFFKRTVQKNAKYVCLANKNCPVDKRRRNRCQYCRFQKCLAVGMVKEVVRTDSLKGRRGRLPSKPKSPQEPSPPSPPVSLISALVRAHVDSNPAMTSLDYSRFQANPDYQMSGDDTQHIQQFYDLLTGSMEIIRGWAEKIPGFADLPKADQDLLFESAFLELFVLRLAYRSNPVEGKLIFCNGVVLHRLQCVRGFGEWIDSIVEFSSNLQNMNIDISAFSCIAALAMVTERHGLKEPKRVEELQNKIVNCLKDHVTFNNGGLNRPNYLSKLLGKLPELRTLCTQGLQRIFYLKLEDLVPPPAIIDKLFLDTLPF
Chain of Nuclear receptor subfamily 4immunitygroup A member 1 (P22736 whole entry, the tested form may be a part): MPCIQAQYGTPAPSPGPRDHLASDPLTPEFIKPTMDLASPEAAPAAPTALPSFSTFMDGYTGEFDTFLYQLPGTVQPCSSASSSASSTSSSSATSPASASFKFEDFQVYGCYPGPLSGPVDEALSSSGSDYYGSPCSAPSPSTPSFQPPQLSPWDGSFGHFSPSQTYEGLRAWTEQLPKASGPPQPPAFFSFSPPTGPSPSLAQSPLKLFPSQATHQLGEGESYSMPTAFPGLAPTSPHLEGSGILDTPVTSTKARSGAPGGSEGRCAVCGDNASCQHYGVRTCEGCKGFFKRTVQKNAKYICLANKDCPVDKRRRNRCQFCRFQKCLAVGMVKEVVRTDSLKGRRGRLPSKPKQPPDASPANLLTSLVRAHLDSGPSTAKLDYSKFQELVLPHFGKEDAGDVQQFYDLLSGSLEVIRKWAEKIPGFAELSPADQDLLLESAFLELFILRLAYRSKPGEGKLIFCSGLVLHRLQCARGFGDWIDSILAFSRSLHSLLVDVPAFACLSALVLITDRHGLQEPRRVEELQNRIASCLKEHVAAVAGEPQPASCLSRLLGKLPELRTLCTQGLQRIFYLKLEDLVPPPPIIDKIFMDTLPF

EC50 [1]: 13 nM
Activity [3]: inactive
deltaH [4]: -4 kcal/mol
EC50 [5]: 10 nM
EC50 [7]: 140 nM
Activity [12]: inactive
Activity [13]: inactive
Structure (SMILES): CC(C)(C)c1ccc(COc2cccc(C(=O)O)c2)cc1
Selectivity ratio [2]: > 30
Selectivity ratio [6]: > 30
Selectivity ratio [8]: > 30
Selectivity ratio [9]: > 30
Selectivity ratio [10]: > 30
Selectivity ratio [11]: > 30
